Source: patent US20100105674A1, “Chemical Compounds” (priority 2007, published 2010)

biological target: T1, Wee1 (Homo sapiens, UniProt P30291); assay: Cell assay for Wee1 inhibitory activity (cell-based ELISA, phospho-cdc2(Tyr15)); settings: Hela cells synchronized using aphidicolin; phosphorylation level of cdc2 (Tyr15) by sandwich ELISA
T1 construct: endogenous in cells; host or cells: HeLa
Excerpt: Cell Assay for Wee1 Inhibitory Activity
Wee1 inhibitory activity can be measured using a cell-based ELISA assay. Hela cells are synchronized using aphidicolin, which blocks the entry of cells into S-phase. Cells in G2-M transition phase are then obtained by releasing the cells from aphidicolin treatment for approximately 7-9 hrs. The phosphorylation level of the Wee1 target cdc2 may then be measured by sandwich ELISA using an anti-cdc2 antibody and an anti-phospho-cdc2(Tyr15) antibody. This cell assay was used to calculate a pIC50 for the compounds described in Examples 2, 3, and 19.

T1 sequence (P30291 whole entry): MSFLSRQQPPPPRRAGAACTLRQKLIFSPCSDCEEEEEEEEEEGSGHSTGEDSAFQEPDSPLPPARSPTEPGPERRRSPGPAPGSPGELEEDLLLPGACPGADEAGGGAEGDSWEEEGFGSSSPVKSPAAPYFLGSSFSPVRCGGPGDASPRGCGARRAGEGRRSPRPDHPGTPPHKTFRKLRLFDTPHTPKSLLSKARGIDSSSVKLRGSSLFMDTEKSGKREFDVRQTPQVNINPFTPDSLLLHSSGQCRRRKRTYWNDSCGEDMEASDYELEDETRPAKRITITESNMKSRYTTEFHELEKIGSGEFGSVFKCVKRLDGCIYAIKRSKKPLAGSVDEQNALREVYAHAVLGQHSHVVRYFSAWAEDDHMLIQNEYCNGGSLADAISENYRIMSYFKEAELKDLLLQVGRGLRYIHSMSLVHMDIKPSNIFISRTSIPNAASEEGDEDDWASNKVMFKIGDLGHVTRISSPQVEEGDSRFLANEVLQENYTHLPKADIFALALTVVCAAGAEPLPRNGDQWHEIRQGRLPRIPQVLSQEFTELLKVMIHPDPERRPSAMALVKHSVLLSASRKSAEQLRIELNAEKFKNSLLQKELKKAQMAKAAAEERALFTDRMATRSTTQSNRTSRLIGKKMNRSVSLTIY

Compound	IC50
CCN(CC)CCOc1ccc(Nc2ncc(Br)c(Nc3ccccc3OC)n2)cc1 [Example 2, 5-bromo-N^2-(4-{[2-(diethylamino)ethyl]oxy}phenyl)-N^4-[2-(methyloxy)phenyl]-2,4-pyrimidinediamine]	≤ 10 µM
CCC(C)NC(=O)c1ccccc1Nc1nc(Nc2cccc(CCN3CCOCC3)c2)ncc1Br (stereo not drawn) [Example 3, 2-{[5-bromo-2-({3-[2-(4-morpholinyl)ethyl]phenyl}amino)-4-pyrimidinyl]amino}-N-(1-methylpropyl)benzamide]	≤ 10 µM
COc1ccccc1Nc1nc(Nc2cccc(OCCN(C)C)c2)ncc1Br [Example 19, 5-bromo-N^2-(3-{[2-(dimethylamino)ethyl]oxy}phenyl)-N^4-[2-(methyloxy)phenyl]-2,4-pyrimidinediamine]	≤ 10 µM
